Measured values taken from patent US7595327B2, “Beta-sulfonamide hydroxamic acid inhibitors of tace/matrix metalloproteinase” (priority 2005, dated 2009).

Columns and labels:
[1] = tested on: LPS-induced TNF-α secretion in human whole blood; assay: Human whole blood assay for LPS-induced TNF-α secretion; type: cell-based; details: Homo sapiens, LPS 100 ng/ml, read-out: TNF Secretion HWB IC50
Experimental: procedure is essentially as described in Newton, R. C., et al., (2001) Ann Rheum […]32, incorporated by reference herein in its entirety. The basic measurement of the assay is the percentage of inhibition of TNF-α secretion and the IC50 determination by a […] model-39 of LSW data analysis tool. 350 μl of fresh human blood drawn from healthy volunteers were pre-incubated with compounds for one hour at the various concentrations at 37° C. with turning generally, the final DMSO concentrations should be kept below 0.2%. At the end of cubation, LPS (Sigma, L2262) was added to the blood at 100 ng/ml and the samples were further incubated for 4 hours or overnight at 37° C. with constant rotation. At the end of the incubation period, 650 μl of serum-free medium was added to the blood samples and the samples were centrifuged at 1500 rpm for 15 minutes. 500 μl of supernate was collected and frozen at -80° C. The TNF-α and other proinflammatory cytokines were detected by ELISA assay according to the manufacturer's instruction (Biosource International, Inc., Camarillo, Calif.).

[2] = tested on: TNF-α secretion in Raw 264.7 cells; assay: Cell-based assay for inhibition of TNF-α secretion in Raw cells; details: Mus musculus, RAW264.7, LPS 100 ng/ml, 4 hr
Experimental: The basic measurement of the assay is the percentage of inhibition of TNF-α secretion and the IC50 determination by a fitting with the model-39 of LSW data analysis tool. […] Cells are split twice a week by scraping and 1 to 10 or 20 dilutions. For testing compounds, cells are cultured to confluence and are seeded the day before the experiment in 24 well culture dishes at 0.5 to 1 million/ml well. On the next morning, the medium from the overnight culture is replaced with the fresh growth medium. The compounds are added at various concentration at the 0.2% of final DMSO concentrations (10 μl of a 20% DMSO solution containing testing compounds is added to each well). The cells are pre-incubated with compounds for 1 hr. LPS (Sigma, L2262) is added to cells at a final concentration of 100 ng/ml (10 μl of a […] LPS solution freshly diluted from a 1 mg/ml LPS stock solution in PBS is added to each well) and cells are further incubated for 4 hr at 37° C. 1 ml of the supernatant was collected, cells are spun down and the supernatants are frozen at −80° C. until use. The TNF-α and other proinflammatory cytokines were detected by an ELISA assay according to the manufacturer's instructions (Biosource International, Inc., Camarillo, Calif. (For IL-1b measurement in Raw cells, one round of freeze and thaw of the cells was required).

[3] = target: T1, TACE (catalytic domain of the recombinant TACE protein) (Homo sapiens, UniProt P78536); assay: TACE FRET assay using TACE Cat; type: biochemical; details: FRET, pro-TNF-α substrate peptide; read-out: TACE IC50
T1 construct: The catalytic domain of the recombinant TACE protein was expressed and purified; made in house
T1 sequence (P78536 223-474 limits assumed): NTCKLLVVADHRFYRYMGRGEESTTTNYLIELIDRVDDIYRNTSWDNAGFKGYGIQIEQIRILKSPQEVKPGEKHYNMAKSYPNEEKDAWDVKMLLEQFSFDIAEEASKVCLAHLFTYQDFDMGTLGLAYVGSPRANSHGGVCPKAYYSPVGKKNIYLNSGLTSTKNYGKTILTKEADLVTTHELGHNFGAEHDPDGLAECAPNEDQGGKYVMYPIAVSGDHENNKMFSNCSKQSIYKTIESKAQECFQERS
Experimental: The procedure is essentially as described in Jin, G. et al., Analytical Biochemistry (2002) 302, 269-275, incorporated by reference herein in its entirety. […] K is the IC50. Generally, n and B are floated, noting that n (hill slope) should be close to 1 and B (background offset) to 0.
Pro-TNF-α substrate peptide Abz-[…]-Dpa (AnaSpec, San Jose, Calif., WARC-1) was prepared as a 2 mM stock solution in the TACE assay buffer (50 mM Tris-HCI, pH 7.4, 25 mM NaCl, 4% Glycerol, 0.005% Brij 35). The catalytic domain of the recombinant TACE protein was expressed and purified. The TACE protein (1 ug/ml) was pretreated with the inhibitors at various concentrations for 10 min at room temperature. The reaction was initiated by the addition of the substrate peptide. The increase in fluorescence was monitored at an Excitation of 320 nm and an Emission of 420 nm over a period of 10 min. The initial rate (slope) of the reaction was determined using a fluorescence plate reader (Molecular Devices, Spectra Max Gemini XS).

[4] = target: T2, recombinant human MMP-2 (Homo sapiens, UniProt P08253); assay: In-vitro fluorescence assay of MMP-2 activity; type: biochemical
T2 sequence (P08253 110-660): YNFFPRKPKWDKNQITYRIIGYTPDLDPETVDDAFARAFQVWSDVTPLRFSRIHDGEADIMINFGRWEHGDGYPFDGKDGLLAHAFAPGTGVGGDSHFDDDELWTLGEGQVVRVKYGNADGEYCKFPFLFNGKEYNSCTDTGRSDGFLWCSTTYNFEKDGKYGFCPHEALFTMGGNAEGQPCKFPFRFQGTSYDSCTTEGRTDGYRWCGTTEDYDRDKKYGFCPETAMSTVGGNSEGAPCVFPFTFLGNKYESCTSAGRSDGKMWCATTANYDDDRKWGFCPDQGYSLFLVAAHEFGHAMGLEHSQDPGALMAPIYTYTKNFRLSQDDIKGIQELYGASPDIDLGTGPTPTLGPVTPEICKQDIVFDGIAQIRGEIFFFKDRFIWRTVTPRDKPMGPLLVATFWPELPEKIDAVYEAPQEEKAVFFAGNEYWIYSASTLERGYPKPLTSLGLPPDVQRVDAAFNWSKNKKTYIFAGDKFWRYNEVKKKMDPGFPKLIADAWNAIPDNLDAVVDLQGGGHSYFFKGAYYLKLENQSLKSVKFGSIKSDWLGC

[5] = target: MMP-13 (Homo sapiens, UniProt P45452); assay: In-vitro fluorescence assay of MMP-13 activity; type: biochemical
Experimental: See Knight, C. […] […].
The method was essentially the same as for the determination of MMP-1 activity, described above, except that the final concentration of purified MMP in the assay was 0.5 nM, prepared by diluting with the assay buffer.

| Compound | IC50 [1] [µM] | IC50 [2] [µM] | IC50 [3] [µM] | IC50 [4] [µM] | IC50 [5] [µM] |
| --- | --- | --- | --- | --- | --- |
| CC(=O)N1CCC(NS(=O)(=O)c2ccc(OCc3cc(C)nc4ccccc34)cc2)C(C(=O)NO)C1 (mixture of isomers) [Example 31, 1-Acetyl-4-[4-(2-methyl-quinolin-4-ylmethoxy)-benzenesulfonylamino]-piperidine-3-carboxylic acid hydroxyamide] | 0.05 | 0.02 | 0.0009 | > 10 | 6.63 |
| Cc1cc(COc2ccc(S(=O)(=O)N[C@]3(C)CCCC[C@@H]3C(=O)NO)cc2)c2ccccc2n1 (racemic) [Example 60, (1S,2R)-N-hydroxy-2-methyl-2-[({4-[(2-methylquinolin-4-yl)methoxy]phenyl}sulfonyl)amino]cyclohexanecarboxamide (racemic)] | 4.9 | 0.025 | < 0.0006 | > 16.7 | > 16.7 |
| Cc1cc(COc2ccc(S(=O)(=O)N[C@@H]3CCC[C@@H]3C(=O)NO)cc2)c2ccccc2n1 (relative stereo) [Example 11, cis-N-Hydroxy-2-[({4-[(2-methylquinolin-4-yl)methoxy]phenyl}sulfonyl)amino]cyclopentanecarboxamide] | 0.74 | 0.011 | 0.0006 | > 16.7 | > 16.7 |
| Cc1cc(COc2ccc(S(=O)(=O)N[C@@H]3CCCC[C@H]3C(=O)NO)cc2)c2ccccc2n1 (relative stereo) [Example 14, trans-N-Hydroxy-2-[({4-[(2-methylquinolin-4-yl)methoxy]phenyl}sulfonyl)amino]cyclohexanecarboxamide] | 4.5 | 0.06 | 0.0018 | > 16.7 | > 16.7 |
| Cc1cc(COc2ccc(S(=O)(=O)N(C)[C@@H]3CC=CC[C@@H]3C(=O)NO)cc2)c2ccccc2n1 (relative stereo) [Example 15, cis-N-Hydroxy-6-[methyl({4-[(2-methylquinolin-4-yl)methoxy]phenyl}sulfonyl)amino]cyclohex-3-ene-1-carboxamide] | > 50 | > 1 | 0.0026 | > 16.7 | > 16.7 |
| Cc1cc(COc2ccc(S(=O)(=O)N(C)[C@@H]3CCC[C@@H]3C(=O)NO)cc2)c2ccccc2n1 (relative stereo) [Example 16, cis-N-Hydroxy-2-[methyl({4-[(2-methylquinolin-4-yl)methoxy]phenyl}sulfonyl)amino]cyclopentanecarboxamide] | 4.78 | 0.093 | < 0.0006 | 9.74 | 13.7 |
| Cc1cc(COc2ccc(S(=O)(=O)N[C@@H]3CN(C(=O)OC(C)(C)C)C[C@@H]3C(=O)NO)cc2)c2ccccc2n1 (relative stereo) [Example 21, tert-Butyl cis-3-[(hydroxyamino)carbonyl]-4-[({4-[(2-methylquinolin-4-yl)methoxy]phenyl}sulfonyl)amino]pyrrolidine-1-carboxylate] | 1.3 | 0.038 | < 0.0006 | 8.8 | 4.89 |
| Cc1cc(COc2ccc(S(=O)(=O)N[C@@H]3CCOCC3C(=O)NO)cc2)c2ccccc2n1 (stereo in doubt) [Example 24, (3S,4R)-4-[4-(2-Methyl-quinolin-4-ylmethoxy)-benzenesulfonylamino]-tetrahydro-pyran-3-carboxylic acid hydroxyamide] | 0.23 | 0.017 | 0.0008 | > 16.7 | > 16.7 |
| Cc1cc(COc2ccc(S(=O)(=O)N(C)[C@@H]3CCOCC3C(=O)NO)cc2)c2ccccc2n1 (stereo in doubt) [Example 25, (3S,4R)-4-{Methyl-[4-(2-methyl-quinolin-4-ylmethoxy)-benzenesulfonyl]-amino}-tetrahydro-pyran-3-carboxylic acid hydroxyamide] | > 50 | > 1 | 0.0079 | > 16.7 | > 16.7 |

The remaining molecules from weak to strong by IC50 [1], led by results:

| IC50 [1] [µM] | IC50 [2] [µM] | IC50 [3] [µM] | IC50 [4] [µM] | IC50 [5] [µM] | Compound |
| --- | --- | --- | --- | --- | --- |
| 41 | 0.929 | 0.0014 | > 16.7 | > 16.7 | Cc1cc(COc2ccc(S(=O)(=O)N(C)[C@H]3COC[C@H]3C(=O)NO)cc2)c2ccccc2n1 (stereo in doubt) [Example 27, (3S,4R)-4-{Methyl-[4-(2-methyl-quinolin-4-ylmethoxy)-benzenesulfonyl]-amino}-tetrahydro-furan-3-carboxylic acid hydroxyamide] |
| 9.6 | 0.052 | 0.0011 | > 16.7 | > 16.7 | Cc1cc(COc2ccc(S(=O)(=O)N(C)[C@@H]3[C@@H]4CC[C@@H](C4)[C@@H]3C(=O)NO)cc2)c2ccccc2n1 (relative stereo) [Example 5, endo-N-Hydroxy-3-[methyl({4-[(2-methylquinolin-4-yl)methoxy]phenyl}sulfonyl)amino]bicyclo[2.2.1]heptane-2-carboxamide] |
| 1.9 | 0.18 | 0.0032 | > 10 | > 10 | Cc1cc(COc2ccc(S(=O)(=O)NC3CCN(CCO)CC3C(=O)NO)cc2)c2ccccc2n1 (mixture of isomers) [Example 32, 1-(2-Hydroxy-ethyl)-4-[4-(2-methyl-quinolin-4-ylmethoxy)-benzenesulfonylamino]-piperidine-3-carboxylic acid hydroxyamide] |
| 1 | 0.09 | 0.0007 | > 10 | > 10 | C#CCN1C[C@H](C(=O)NO)[C@H](NS(=O)(=O)c2ccc(OCc3cc(C)nc4ccccc34)cc2)C1 (relative stereo) [Example 18, cis-N-Hydroxy-4-[({4-[(2-methylquinolin-4-yl)methoxy]phenyl}sulfonyl)amino]-1-prop-2-yn-1-ylpyrrolidine-3-carboxamide] |
| 0.2 | 0.02 | < 0.0006 | > 10 | ≥ 10 | CC(=O)N1C[C@H](C(=O)NO)[C@H](NS(=O)(=O)c2ccc(OCc3cc(C)nc4ccccc34)cc2)C1 (relative stereo) [Example 19, cis-1-acetyl-N-Hydroxy-4-[({4-[(2-methylquinolin-4-yl)methoxy]phenyl}sulfonyl)amino]pyrrolidine-3-carboxamide] |
